Experimental data: PubChem BioAssay AID1963860 (Molecular Pharmacology Branch, DTP, NCI, 2024)

System: CN0375-F725-PDC KRAS spheroid viability
Test: Anticancer human tumor CN0375-F725-PDC patient-derived colon carcinoma cell line growth inhibition [KRAS2]
Settings: spheroids with HUVEC and MSC; for IC50: curve of first compound; for viability, T/C: stronger effect = lower value
In short: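 KRAS-mutant tumor cells were grown as spheroids with HUVEC endothelial cells and human MSCs as stroma. Targeted agents were tested alone and with KRAS pathway inhibitors. Doses started at or near clinical Cmax, or 10 microM, descending half-log.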
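Note: spheroids exposed to agents for 7 days.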

Compound: CC1(C)CCC(CN2CCN(c3ccc(C(=O)NS(=O)(=O)c4ccc(NCC5CCOCC5)c([N+](=O)[O-])c4)c(Oc4cnc5[nH]ccc5c4)c3)CC2)=C(c2ccc(Cl)cc2)C1 + C=CC(=O)N1CCN(c2nc(OCC3CCCN3C)nc3c2CCN(c2cccc4cccc(C)c24)C3)CC1CC#N
- IC50 (second compound 0.0316 µM): 3980 nM
- IC50 (second compound 0.1 µM): 4630 nM
- IC50 (second compound 0.316 µM): 2670 nM
- IC50 (second compound 1 µM): 2010 nM
- IC50 (second compound 3.16 µM): < 31.6 nM
- viability, T/C (second compound 0.0316 µM, first compound 0.0316 µM): 108%
- viability, T/C (second compound 0.0316 µM, first compound 0.1 µM): 102%
- viability, T/C (second compound 0.0316 µM, first compound 0.316 µM): 101%
- viability, T/C (second compound 0.0316 µM, first compound 1 µM): 107%
- viability, T/C (second compound 0.0316 µM, first compound 3.16 µM): 58.5%
- viability, T/C (second compound 0.0316 µM, first compound 10 µM): 15.9%
- viability, T/C (second compound 0.1 µM, first compound 0.0316 µM): 104%
- viability, T/C (second compound 0.1 µM, first compound 0.1 µM): 104%
- viability, T/C (second compound 0.1 µM, first compound 0.316 µM): 102%
- viability, T/C (second compound 0.1 µM, first compound 1 µM): 99%
- viability, T/C (second compound 0.1 µM, first compound 3.16 µM): 66.3%
- viability, T/C (second compound 0.1 µM, first compound 10 µM): 17%
- viability, T/C (second compound 0.316 µM, first compound 0.0316 µM): 101%
- viability, T/C (second compound 0.316 µM, first compound 0.1 µM): 108%
- viability, T/C (second compound 0.316 µM, first compound 0.316 µM): 101%
- viability, T/C (second compound 0.316 µM, first compound 1 µM): 96.6%
- viability, T/C (second compound 0.316 µM, first compound 3.16 µM): 42%
- viability, T/C (second compound 0.316 µM, first compound 10 µM): 14.3%
- viability, T/C (second compound 1 µM, first compound 0.0316 µM): 96.6%
- viability, T/C (second compound 1 µM, first compound 0.1 µM): 97.2%
- viability, T/C (second compound 1 µM, first compound 0.316 µM): 100%
- viability, T/C (second compound 1 µM, first compound 1 µM): 86.3%
- viability, T/C (second compound 1 µM, first compound 3.16 µM): 26.2%
- viability, T/C (second compound 1 µM, first compound 10 µM): 5.23%
- viability, T/C (second compound 3.16 µM, first compound 0.0316 µM): 11%
- viability, T/C (second compound 3.16 µM, first compound 0.1 µM): 12%
- viability, T/C (second compound 3.16 µM, first compound 0.316 µM): 3.38%
- viability, T/C (second compound 3.16 µM, first compound 1 µM): 3.27%
- viability, T/C (second compound 3.16 µM, first compound 3.16 µM): 0.38%
- viability, T/C (second compound 3.16 µM, first compound 10 µM): 0.17%
